# Paper PMC11387175, “Model informed dose regimen optimizing in development of leritrelvir for the treatment of mild or moderate COVID-19” (Frontiers in Pharmacology, 2024)
# How the values were obtained:
# [1] = system: CYP3A; test: Metabolizing enzyme identification (in-house data); type: in vitro ADME
# [2] = system: Omicron BA.1; design: method as in Chen et al., 2024; conditions: ref Chen et al., 2024, read-out: concentration for 90% of maximal effect (EC90); cited from earlier work
# [3] = system: CYP1A2, CYP2B6, CYP2C8, CYP2C9, CYP2C19, and CYP2D6; test: Metabolizing enzyme identification (in-house data); type: in vitro ADME
# [4] = system: wild-type strain; design: method as in Chen et al., 2024; conditions: ref Chen et al., 2024, read-out: concentration for 90% of maximal effect (EC90); cited from earlier work
# [5] = system: Omicron BA.5; design: method as in Chen et al., 2024; conditions: ref Chen et al., 2024, read-out: concentration for 90% of maximal effect (EC90); cited from earlier work
# [6] = Population pharmacokinetic analysis of phase I plasma concentrations (SAD, MAD, food effect); type: in vivo, human
# From the text: (§1) The data obtained from a phase I clinical trial assessing the safety, tolerability, pharmacokinetics, and impact of food on leritrelvir Pharmacokinetics in healthy adult subjects (NCT05829551) were utilized in the PopPK analysis. The trial was designed as a randomized, double-blind, placebo-controlled study involving escalating single and multiple doses. The study design is outlined in Figure 1. In the single-ascending dose (SAD) arm, participants received leritrelvir tablets alone or with 100 mg of RTV. In the multiple-ascending dose (MAD) arm, leritrelvir tablets were given alone or with 100 mg RTV twice-daily on Days 1–4, followed by a single dose on Day 5, or thrice-daily on Days 1–4, followed by a single dose on Day 5. In the food consumption study arm, leritrelvir tablets alone or with 100 mg RTV were administered once during each dosing period after an overnight fast of at least 10 h or following a standard meal (high-fat, high-calorie) on Day 1. Each dosing period included a single administration, totaling two administrations, with a minimum interval of 8 days between periods.
# FIGURE 1 Overall study design diagram. The study comprised three distinct components: a single-ascending dose study (SAD), a food effect study, and a multiple-ascending dose study (MAD). The SAD portion of the study was divided into two parts: Part 1 involved a dose escalation study of single-agent administration of RAY1216 tablets (S-1, S-2, and S-3), while Part 2 focused on the combination of RAY1216 tablets with 100 mg RTV (S-1R, S-2R, and S-3R). It should be noted that the S-2R and S-3R groups were initially planned but were ultimately not conducted due to dose-undetermined factors. The food effect study (FE) entails the administration of single doses of RAY1216 tablets at 800 mg (FE-1) and in combination with RTV at 500 mg (FE-2) to groups of 12 subjects. Group A undergoes a fasting administration cycle followed by a postprandial administration cycle, while Group B experiences the reverse order of administration cycles. The two cycles consist of crossover administration with a washout period lasting a minimum of 8 days. The MAD involves the co-administration of RAY1216 tablets (300 mg, 500 mg, and 700 mg) with 100 mg RTV in a BID dosing regimen, with escalating doses administered over 5 consecutive days and solely in the morning on the 5th day. Furthermore, a 400 mg RAY1216 single-agent TID dosing regimen administered over 5 consecutive days with administration limited to the morning on the 5th day.
# Leritrelvir PK data was analyzed utilizing nonlinear mixed-effects modeling (NONMEM) ([Lindstrom and Bates, 1990]) and implemented with NONMEM version 7.5 (ICON Development Solutions. Ellicott City, Maryland, USA). The estimation algorithm used was the first-order conditional estimation method with interaction (FOCEI) of interindividual variability and residual variability. Perl Speaks NONMEM (PsN) version 4.2 (Uppsala University, Sweden) ([Lindbom et al., 2004]; [Lindbom et al., 2005]) and R version 4.1.2 were used as tools for executing NONMEM and summarizing outcomes. The model evaluated the impact of age, weight, body mass index, gender, albumin, alanine aminotransferase, aspartate aminotransferase, alkaline phosphatase, serum creatinine, creatinine clearance rate, total bilirubin, gamma-glutamyl transpeptidase, food consumption, and concomitant medication on the pharmacokinetics of leritrelvir. The final PopPK model was determined through a stepwise forward addition (p < 0.01) and backward deletion (p < 0.001) approach. The specifics of the model development process are outlined in the Supplementary Material. Evaluation of the final PopPK model was conducted using goodness-of-fit plots, prediction-corrected visual predictive check (pcVPC) ([Bergstrand et al., 2011]), bootstrapping ([Ette, 1997]), and shrinkage assessments ([Savic and Karlsson, 2009]). […]
# [7] = system: SARS-CoV-2; conditions: COVID-19 patients; 400 mg TID alone or 300 mg with 100 mg RTV BID; ref Wang et al., 2023; cited from earlier work
# [8] = system: Alpha variant; design: method as in Chen et al., 2024; conditions: ref Chen et al., 2024, read-out: concentration for 90% of maximal effect (EC90); cited from earlier work
# [9] = system: SARS-CoV-2 βCoV/KOR/KCDC03/2020 strain; design: method as in Chen et al., 2023; conditions: Vero cells, ref Chen et al., 2023, cited from earlier work
# [10] = system: SARS-CoV-2; design: method as in Zhan et al., 2024; conditions: ref Zhan et al., 2024, cited from earlier work
# [11] = system: wild strain of COVID-19; test: Target concentration needed to achieve EC90; type: cell-based, SARS-CoV-2
# [12] = system: Delta variant; design: method as in Chen et al., 2024; conditions: ref Chen et al., 2024, read-out: concentration for 90% of maximal effect (EC90); cited from earlier work
# [13] = Phase I safety and tolerability in healthy subjects; type: in vivo, human; conditions: monotherapy or in combination with ritonavir
# From the text: as §1
# [14] = system: Beta variant; design: method as in Chen et al., 2024; conditions: ref Chen et al., 2024, read-out: concentration for 90% of maximal effect (EC90); cited from earlier work
compound,measurement,setting,value
O=C(NC1CCCC1)C(=O)[C@H](C[C@@H]1CCNC1=O)NC(=O)[C@@H]1[C@H]2CCC[C@H]2CN1C(=O)[C@@H](NC(=O)C(F)(F)F)C1CCCCC1 [leritrelvir],role of CYP3A in metabolism,[1],primary metabolizing enzyme
same,EC90,[2],208 nM
same,involvement of other CYP isoforms in metabolism,[3],minimal to no involvement
same,EC90,[4],228 nM
same,EC90,[5],363 nM
same,ratio of estimated clearance of leritrelvir to leritrelvir combined with RTV,[6]; 44.4/12.2,3.64
same,"Absorption lag time, ALAG1: Bootstrapping Median (95% CI)",[6]; Comb (with RTV),0.166 (0.131–0.185) hr
same,"Absorption lag time, ALAG1: Population model estimates (%RSE) [95% CI]",[6]; Comb (with RTV),0.166 h
same,"Absorption rate, Ka: Bootstrapping Median (95% CI)",[6]; Comb (with RTV),0.170 (0.154–0.185) hr^-1
same,"Absorption rate, Ka: Population model estimates (%RSE) [95% CI]",[6]; Comb (with RTV),0.169 h⁻¹
same,"Clearance, CL: Bootstrapping Median (95% CI)",[6]; Comb (with RTV),12.2 (10.7–14.0) L/h
same,"Clearance, CL: Population model estimates (%RSE) [95% CI]",[6]; Comb (with RTV),12.2 L/h
same,"Duration of zero order absorption, D1: Bootstrapping Median (95% CI)",[6]; Comb (with RTV),0.0719 (0.0412–0.129) hr
same,"Duration of zero order absorption, D1: Population model estimates (%RSE) [95% CI]",[6]; Comb (with RTV),0.0684 h
same,"Intercompartment clearance between the central compartment and peripheral compartment, Q: Population model estimates (%RSE) [95% CI]",[6]; Comb (with RTV),0.611 L/h
same,"Volume distribution of peripheral compartment, Vc: Bootstrapping Median (95% CI)",[6]; Comb (with RTV),9.90 (7.68–13.2) L
same,"Volume distribution of peripheral compartment, Vc: Population model estimates (%RSE) [95% CI]",[6]; Comb (with RTV),9.78 L
same,"Volume distribution of peripheral compartment, Vp: Bootstrapping Median (95% CI)",[6]; Comb (with RTV),9.24 (6.93–12.8) L
same,"Volume distribution of peripheral compartment, Vp: Population model estimates (%RSE) [95% CI]",[6]; Comb (with RTV),9.30 L
same,"Absorption lag time, ALAG1: Bootstrapping Median (95% CI)",[6]; Mono (leritrelvir alone),0.188 (0.164–0.2) hr
same,"Absorption lag time, ALAG1: Population model estimates (%RSE) [95% CI]",[6]; Mono (leritrelvir alone),0.189 h
same,"Absorption rate, Ka: Bootstrapping Median (95% CI)",[6]; Mono (leritrelvir alone),0.292 (0.258–0.329) hr^-1
same,"Absorption rate, Ka: Population model estimates (%RSE) [95% CI]",[6]; Mono (leritrelvir alone),0.293 h⁻¹
same,"Clearance, CL: Bootstrapping Median (95% CI)",[6]; Mono (leritrelvir alone),44.2 (39.0–50.7) L/h
same,"Clearance, CL: Population model estimates (%RSE) [95% CI]",[6]; Mono (leritrelvir alone),44.4 L/h
same,"Duration of zero order absorption, D1: Bootstrapping Median (95% CI)",[6]; Mono (leritrelvir alone),0.078 (0.0359–0.171) hr
same,"Duration of zero order absorption, D1: Population model estimates (%RSE) [95% CI]",[6]; Mono (leritrelvir alone),0.0722 h
same,"Intercompartment clearance between the central compartment and peripheral compartment, Q: Population model estimates (%RSE) [95% CI]",[6]; Mono (leritrelvir alone),5.57 L/h
same,"Volume distribution of peripheral compartment, Vc: Bootstrapping Median (95% CI)",[6]; Mono (leritrelvir alone),18.7 (14.3–25.3) L
same,"Volume distribution of peripheral compartment, Vc: Population model estimates (%RSE) [95% CI]",[6]; Mono (leritrelvir alone),18.9 L
same,"Volume distribution of peripheral compartment, Vp: Bootstrapping Median (95% CI)",[6]; Mono (leritrelvir alone),58.2 (44.7–79.5) L
same,"Volume distribution of peripheral compartment, Vp: Population model estimates (%RSE) [95% CI]",[6]; Mono (leritrelvir alone),58.2 L
same,"Occasion variability of CL after multiple dose for 12 h, OC1.CL: Bootstrapping Median (95% CI)",[6]; cell for OC2.CL (96 h) is empty below,18.7 (10–29.3) %
same,"Occasion variability of Vc after multiple dose for 12 h, OC1.Vc: Bootstrapping Median (95% CI)",[6]; cell for OC2.Vc (96 h) is empty below,53.1 (34–82.5) %
same,Proportional error of fed subjects within 2 h after dose: Bootstrapping Median (95% CI),"[6]; fed subjects, 0-2 h post-dosing",70.5 (56.4–80.7) %
same,"Impact of food consumption on D1, D1.FED: Bootstrapping Median (95% CI)",[6]; fed vs fasted,1.33 (1.22–1.49)
same,"Impact of food consumption on F1, F1.FED: Bootstrapping Median (95% CI)",[6]; fed vs fasted,1.50 (1.25–1.82)
same,"Impact of food consumption on Ka, Ka.FED: Bootstrapping Median (95% CI)",[6]; fed vs fasted,21.3 (10.8–41)
same,Inter-individual variability CL: Bootstrapping Median (95% CI),[6]; in vivo,29.9 (25.5–34.6) %
same,Inter-individual variability D1: Bootstrapping Median (95% CI),[6]; in vivo,152 (114–189) %
same,Inter-individual variability Ka: Bootstrapping Median (95% CI),[6]; in vivo,25.3 (20.7–29.4) %
same,Inter-individual variability Vc: Bootstrapping Median (95% CI),[6]; in vivo,79.8 (64.7–93.4) %
same,Inter-individual variability Vp: Bootstrapping Median (95% CI),[6]; in vivo,43.6 (31–52.5) %
same,"Residual variability, Proportional residual: Bootstrapping Median (95% CI)",[6]; in vivo,24.2 (22.4–26.1) %
same,enhancement of exposure of leritrelvir by co-administration with RTV,[6]; with RTV vs alone,approximately 4 fold
same,duration of viral shedding,[7],166 h
same,duration of viral shedding shorter than the placebo group,[7],4.2 days
same,EC90,[8],351 nM
same,IC90,[9]; read-out: 90% inhibitory concentration (IC90),92 nM
same,IC50,[9]; read-out: half maximal inhibitory concentration (IC50),36 nM
same,decrease in the SARS-CoV-2 viral load compared to the placebo,"[10]; 400 mg TID, after a 3-day treatment period",approximately tenfold
same,reduction in the time to sustained clinical recovery of all 11 COVID-19 symptoms compared to the placebo,[10]; oral 400 mg TID for 5 days,20.3 h
same,concentration needed to achieve EC90,[11],0.165 µg/mL
same,EC90,[12],254 nM
same,Grade 3 or higher adverse events (AEs),[13],No Grade 3 or higher adverse events (AEs) were reported
same,"changes in corrected QT (QTc) interval, pulse rate (PR) interval, heart rate, and blood pressure",[13],no meaningful changes were observed
same,dose-dependent adverse reactions,[13],No dose-dependent adverse reactions were observed
same,serious adverse events (SAEs),[13],no serious adverse events (SAEs) occurred
same,EC90,[14],688 nM
